# Source: patent US11098010B2 (priority 2017, dated 2021)
# Tested on: HBV rcDNA in HepDE19 cells
# Experiment: HepDE19 assay with bDNA quantitation of HBV rcDNA
# Type: cell-based, hepatitis B virus (HBV)
# Settings: HepDE19 cells, inhibition of rcDNA formation, 7 day incubation, top concentration 25 μM; read-out: DE-19 bDNA EC50
# Protocol: HepDE19 Assay with bDNA Quantitation of HBV rcDNA:
# HepDE19 cell culture system is a HepG2 (human hepatocarcinoma) derived cell line that supports HBV DNA replication and cccDNA formation in a tetracycline (Tet)-regulated manner and produces HBV rcDNA and a detectable reporter molecule dependent on the production and maintenance of cccDNA (Guo, et al., 2007, J. Virol. 81:12472-12484).
# HepDE19 (50,000 cells/well) were plated in 96-well collagen-coated tissue-culture treated microtiter plates in DMEM/F12 medium supplemented with 10% fetal bovine serum, 1% penicillin-streptomycin and 1 μg/mL tetracycline and incubated in a humidified incubator at 37° C. and 5% CO2 overnight. Next day, the cells were switched to fresh medium without tetracycline and incubated for 4 hours at 37° C. and 5% CO2. The cells were treated with fresh Tet-free medium with compounds at concentrations starting at 25 μM and a serial, ½ log, 8-point, titration series in duplicate. The final DMSO concentration in the assay was 0.5%. The plates were incubated for 7 days in a humidified incubator at 37° C. and 5% CO2. Following a 7 day-incubation, the level of rcDNA present in the inhibitor-treated wells was measured using a Quantigene 2.0 bDNA assay kit (Affymetrix, Santa Clara, Calif.) with HBV specific custom probe set and manufacturers instructions. Concurrently, the effect of compounds on cell viability was assessed using replicate plates, plated at a density of 5,000 cells/well and incubated for 4 days, to determine the ATP content as a measure of cell viability using the cell-titer glo reagent (CTG; Promega Corporation, Madison, Wis.) as per manufacturer's instructions. The plates were read using a Victor luminescence plate reader (PerkinElmer Model 1420 Multilabel counter) and the relative luminescence units (RLU) data generated from each well was calculated as % inhibition of the untreated control wells and analyzed using XL-Fit module in Microsoft Excel to determine EC50 and EC90 (bDNA) and CC50 (CTG) values using a 4-parameter curve fitting algorithm.
# Representative compounds of the invention were tested for their abilities to inhibit formation of relaxed circular DNA (rcDNA) in a HepDE19 assay, as described elsewhere herein.
row,Compound,EC50 [µM]
1,"CN1C(=O)NC2(CCc3c(C(=O)Nc4ccc(F)c(Cl)c4)ccc(F)c32)C1=O (single isomer, unassigned) [Compound 261, N-(3-chloro-4-fluoro-phenyl)-7′-fluoro-1-methyl-2,5-dioxo-spiro [imidazolidine-4,1′-indane]-4′-carboxamide]",2.7
2,"O=C(NC1CCc2c(C(=O)Nc3ccc(F)c(Cl)c3)ccnc21)OCc1ccccn1 (stereo not drawn) [Compound 267, O-Pyridin-2-ylmethyl, N-(4-((3-chloro-4-fluorophenyl)carbamoyl)-6,7-dihydro-5H-cyclopenta[b]pyridin-7-yl) carbamate]",4.9
3,"CC1(NC(=O)OCc2ccccn2)CCc2c(C(=O)Nc3ccc(F)c(Cl)c3)ccc(F)c21 (stereo not drawn) [Compound 219, O-pyridin-2-ylmethyl, N-(4-((3-chloro-4-fluorophenyl)carbamoyl)-7-fluoro-1-methyl-2,3-dihydro-1H-inden-1-yl) carbamate]",1.5
4,"CC(C)n1nccc1COC(=O)N[C@H]1CCc2c(C(=O)Nc3ccc(F)c(Cl)c3)ccc(F)c21 [Compound 106, O-(1-Isopropyl-1H-pyrazol-5-yl)methyl, N—(S)-(4-((3-chloro-4-fluorophenyl)carbamoyl)-7-fluoro-2,3-dihydro-1H-inden-1-yl) carbamate]",0.17
5,"O=C(Nc1ccc(F)c(Cl)c1)c1ccc(F)c2c1OCC2NS(=O)(=O)C1CC1 (single isomer, unassigned) [Compound 208, N-(3-chloro-4-fluorophenyl)-3-(cyclopropanesulfonamido)-4-fluoro-2,3-dihydrobenzofuran-7-carboxamide]",0.11

# Same assay, conditions: Hepatitis B virus, HepDE19, 168 h, HepDE19 cells, inhibition of rcDNA formation, 7 day incubation, top concentration 25 μM; read-out: DE-19 bDNA EC50
row,Compound,EC50 [µM]
1,"COCC(=O)N[C@H]1CCc2c(C(=O)Nc3ccc(F)c(Cl)c3)ccc(F)c21 [Compound 75, (S)—N-(3-Chloro-4-fluorophenyl)-7-fluoro-1-(2-methoxyacetamido)-2,3-dihydro-1H-indene-4-carboxamide]",1.4
2,"Cn1ccc(COC(=O)N[C@H]2CCc3c(C(=O)Nc4ccc(F)c(Cl)c4)ccc(F)c32)n1 [Compound 71, O-(1-Methyl-1H-pyrazol-3-yl)methyl, N—(S)-(4-((3-chloro-4-fluorophenyl)carbamoyl)-7-fluoro-2,3-dihydro-1H-inden-1-yl) carbamate]",0.06
3,"CNS(=O)(=O)N[C@H]1CCc2c(C(=O)Nc3ccc(F)c(Cl)c3)cccc21 [Compound 230, (S)-N-(3-chloro-4-fluorophenyl)-1-((N-methylsulfamoyl)amino)-2,3-dihydro-1H-indene-4-carboxamide]",0.36
4,"O=C(N[C@H]1CCc2c(C(=O)Nc3ccc(F)c(Cl)c3)ccc(F)c21)OCc1nccs1 [Compound 92, O-Thiazol-2-ylmethyl, N—(S)-(4-((3-chloro-4-fluorophenyl)carbamoyl)-7-fluoro-2,3-dihydro-1H-inden-1-yl) carbamate]",0.18
5,"CNC(=O)NC1CCc2c(C(=O)Nc3ccc(F)c(Cl)c3)ccnc21 (stereo not drawn) [Compound 263, N-(3-Chloro-4-fluorophenyl)-7-(3-methylureido)-6,7-dihydro-5H-cyclopenta[b]pyridine-4-carboxamide]",1.9
6,"O=C(N[C@H]1CCc2c(C(=O)Nc3ccc(F)c(Cl)c3)ccc(F)c21)OC1CC1 [Compound 226, O-cyclopropyl, N—(S)-(4-((3-chloro-4-fluorophenyl)carbamoyl)-7-fluoro-2,3-dihydro-1H-inden-1-yl)carbamate]",0.24
7,"O=C(N[C@H]1CCc2c(C(=O)Nc3ccc(F)c(F)c3)cccc21)OCc1ccccn1 [Compound 3, O-Pyridin-2-ylmethyl, N—(S)-(4-((3,4-difluorophenyl)carbamoyl)-2,3-dihydro-1H-inden-1-yl) carbamate]",0.5
8,"CCCS(=O)(=O)N[C@H]1CCc2c(C(=O)Nc3ccc(F)c(Cl)c3)ccc(F)c21 [Compound 233, (S)—N-(3-Chloro-4-fluorophenyl)-7-fluoro-1-(propylsulfonamido)-2,3-dihydro-1H-indene-4-carboxamide]",0.33
9,"Cc1cc(NC(=O)c2ccc(F)c3c2CC[C@@H]3NC(=O)OCc2ccccn2)ccc1F [Compound 40, O-Pyridin-2-ylmethyl, N—(S)-(7-fluoro-4-((4-fluoro-3-methylphenyl)carbamoyl)-2,3-dihydro-1H-inden-1-yl) carbamate]",0.62
10,"O=C(Nc1ccc(F)c(Cl)c1)c1ccc(F)c2c1CC[C@@H]2O [Compound 81, (S)—N-(3-Chloro-4-fluorophenyl)-7-fluoro-1-hydroxy-2,3-dihydro-1H-indene-4-carboxamide]",0.67
11,"COC1Cc2c(C(=O)Nc3ccc(F)c(Cl)c3)ccc(F)c2C1NC(=O)OCc1ccccn1 (stereo not drawn) [Compound 247, O-pyridin-2-ylmethyl, N-(4-((3-chloro-4-fluorophenyl)carbamoyl)-7-fluoro-2-methoxy-2,3-dihydro-1H-inden-1-yl)carbamate]",0.68
12,"O=C(CN1CCOCC1)N[C@H]1CCc2c(C(=O)Nc3ccc(F)c(Cl)c3)ccc(F)c21 [Compound 118, (S)—N-(3-Chloro-4-fluorophenyl)-7-fluoro-1-(2-morpholinoacetamido)-2,3-dihydro-1H-indene-4-carboxamide]",2.2
13,"CNC(=O)NC1c2c(F)ccc(C(=O)Nc3ccc(F)c(Cl)c3)c2CC1(F)F (single isomer, unassigned) [Compound 211, N-(3-chloro-4-fluorophenyl)-2,2,7-trifluoro-1-(3-methylureido)-2,3-dihydro-1H-indene-4-carboxamide]",6.9

# Same assay, conditions: Hepatitis B virus, HepDE19, 168 h, read-out: DE-19 bDNA EC50 (μM), HepDE19 cells, inhibition of rcDNA formation, 7 day incubation, top concentration 25 μM
row,Compound,EC50 [µM]
1,"O=C1CC[C@@H](COC(=O)N[C@H]2CCc3c(C(=O)Nc4ccc(F)c(Cl)c4)ccc(F)c32)N1 [Compound 18, O—((S)-5-Oxopyrrolidin-2-yl)methyl, N—((S)-4-((3-chloro-4-fluorophenyl)carbamoyl)-7-fluoro-2,3-dihydro-1H-inden-1-yl) carbamate]",0.34
2,"O=C(N[C@H]1CCc2c(C(=O)Nc3ccc(F)c(Cl)c3)ccc(F)c21)OC[C@H]1CCCO1 [Compound 112, O—((R)-Tetrahydrofuran-2-yl)methyl, N—((S)-4-((3-chloro-4-fluorophenyl)carbamoyl)-7-fluoro-2,3-dihydro-1H-inden-1-yl) carbamate]",0.21
3,"O=C1CCC[C@@H](COC(=O)N[C@H]2CCc3c(C(=O)Nc4ccc(F)c(Cl)c4)ccc(F)c32)N1 [Compound 212, O—((S)-6-Oxopiperidin-2-yl)methyl, N—((S)-4-((3-chloro-4-fluorophenyl)carbamoyl)-7-fluoro-2,3-dihydro-1H-inden-1-yl) carbamate]",0.27
4,"Cc1cnc(N[C@H]2CCc3c(C(=O)Nc4ccc(F)c(Cl)c4)ccc(F)c32)nc1 [Compound 162, (S)—N-(3-Chloro-4-fluorophenyl)-7-fluoro-1-((5-methylpyrimidin-2-yl)amino)-2,3-dihydro-1H-indene-4-carboxamide]",0.15
5,"NC(=O)c1ccnc(N[C@H]2CCc3c(C(=O)Nc4ccc(F)c(Cl)c4)ccc(F)c32)n1 [Compound 104, (S)-2-((4-((3-Chloro-4-fluorophenyl)carbamoyl)-7-fluoro-2,3-dihydro-1H-inden-1-yl)amino)pyrimidine-4-carboxamide]",0.16
6,"O=C(Nc1ccc(F)c(Cl)c1)c1ccc(F)c2c1CC[C@@H]2Nc1nccs1 [Compound 146, (S)—N-(3-Chloro-4-fluorophenyl)-7-fluoro-1-(thiazol-2-ylamino)-2,3-dihydro-1H-indene-4-carboxamide]",0.24
7,"O=C(N[C@H]1CCc2c(C(=O)Nc3ccc(F)c(Cl)c3)ccc(F)c21)OC1CCOCC1 [Compound 113, O-Tetrahydro-2H-pyran-4-yl, N—(S)-(4-((3-chloro-4-fluorophenyl)carbamoyl)-7-fluoro-2,3-dihydro-1H-inden-1-yl) carbamate]",0.31
8,"COC(=O)N[C@@H]1c2cccc(C(=O)Nc3ccc(F)c(Cl)c3)c2C[C@H]1O [Compound 46, O-Methyl, N-((1R,2R)-4-((3-chloro-4-fluorophenyl)carbamoyl)-2-hydroxy-2,3-dihydro-1H-inden-1-yl) carbamate]",0.7

# Same assay, conditions: read-out: DE-19 bDNA EC50; HepDE19 cells, inhibition of rcDNA formation, 7 day incubation, top concentration 25 μM
row,Compound,EC50 [µM]
1,"COC(=O)NC1CSc2c(C(=O)Nc3ccc(F)c(Cl)c3)ccc(F)c21 (stereo not drawn) [Compound 58, O-Methyl, N-(7-((3-chloro-4-fluorophenyl)carbamoyl)-4-fluoro-2,3-dihydrobenzo[b]thiophen-3-yl) carbamate]",0.79
